Laboratory results reported in US7396837B2, “Antitumoral analogs of lamellarins” (Pharma Mar, S.A.U., priority 2002, dated 2008).
Where two headings read alike, the source gives them in different places.

Tests used:
Assay type in all cases: cell-based
[1] = tested on: DU-145; test: SRB colorimetric cell growth inhibition assay, DU-145; details: Homo sapiens
How it was run: (§1)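 Read-out: sulforhodamine B colorimetry of surviving cell mass after continued exposure of human tumour lines to sample. Values are means ± SD of three wells, expressed as GI, TGI or LC.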

[2] = tested on: SKOV-3; test: SRB colorimetric cell growth inhibition assay, SKOV-3; details: Homo sapiens
Text: (§2) A colorimetric type of assay, using sulforhodamine B (SRB) reaction has been adapted for a quantitative measurement of cell growth and viability (following the technique described by P. A. Skehan, et al., J. Natl. Cancer Inst. 1990, 82, 1107-1112).
(§3) This form of assay employs 96 well cell culture microplates of 9 mm diameter (T. Mosmann et al., J. of Immunological Methods 1983, 65, 55-63; G. T. Faircloth et al., J. of Tissue and Culture Methods 1988, 11, 201-205).
(§4) Most of the cell lines are obtained from American Type Culture Collection (ATCC) derived from different human cancer types.
(§5) The values for mean +/− SD of data from triplicate wells are calculated. Some parameters for cellular responses can be calculated: GI=growth inhibition, TGI=total growth inhibition (cytostatic effect) and LC=cell killing (cytotoxic effect).

[3] = tested on: PANC-1; test: SRB colorimetric cell growth inhibition assay, PANC-1; details: Homo sapiens
How it was run: as §1

[4] = tested on: LoVo; test: SRB colorimetric cell growth inhibition assay, LoVo; details: Homo sapiens, LoVo; for GI50: read-out: GI50 LOVO; for CC50: read-out: LC50 LOVO; for IC (TGI): read-out: TGI LOVO
How it was run: as §1

[5] = tested on: SK-BR-3; test: SRB colorimetric cell growth inhibition assay, SK-BR-3; details: Homo sapiens
How it was run: as §1

[6] = tested on: K-562; test: SRB colorimetric cell growth inhibition assay, K-562; details: Homo sapiens
How it was run: as §1

[7] = tested on: A-549; test: SRB colorimetric cell growth inhibition assay, A-549; details: Homo sapiens
How it was run: as §1

[8] = tested on: H-MEC-1; test: SRB colorimetric cell growth inhibition assay, H-MEC-1; details: Homo sapiens
Text: as §2, §3, §4, §5

[9] = as above; details: human, H-MEC-1, cell killing (cytotoxic effect), read-out: LC50 H-MEC-1
Text: as §2, §3, §4, §5

[10] = tested on: HT-29; test: SRB colorimetric cell growth inhibition assay, HT-29; details: Homo sapiens
How it was run: as §1

[11] = tested on: IGROV-ET; test: SRB colorimetric cell growth inhibition assay, IGROV-ET (ET-743 resistant); details: Homo sapiens; for GI50: read-out: GI50 IGROV-ET; for CC50: read-out: LC50 IGROV-ET; for IC (TGI): read-out: TGI IGROV-ET
How it was run: as §1

[12] = tested on: IGROV; test: SRB colorimetric cell growth inhibition assay, IGROV; details: Homo sapiens, IGROV; for GI50: read-out: GI50 IGROV; for CC50: read-out: LC50 IGROV; for IC (TGI): read-out: TGI IGROV
How it was run: as §1

[13] = tested on: LNCaP; test: SRB colorimetric cell growth inhibition assay, LNCaP; details: Homo sapiens, LNCaP; for GI50: read-out: GI50 LN-caP; for CC50: read-out: LC50 LN-caP; for IC (TGI): read-out: TGI LN-caP
How it was run: as §1

[14] = tested on: SK-MEL-28; test: SRB colorimetric cell growth inhibition assay, SK-MEL-28; details: Homo sapiens
How it was run: as §1

[15] = tested on: LoVo-Dox; test: SRB colorimetric cell growth inhibition assay, LoVo-Dox (MDR); details: Homo sapiens; for GI50: read-out: GI50 LOVO-DOX; for CC50: read-out: LC50 LOVO-DOX; for IC (TGI): read-out: TGI LOVO-DOX
How it was run: as §1

[16] = cell killing (cytotoxic effect)
[17] = total growth inhibition (cytostatic effect)

COc1cc(-c2c3n(c4c(=O)oc5cc(O)c(OC)cc5c24)CCc2c-3cc(OC)c(OC)c2O)ccc1O [Compound 1]
GI50 ([1]; DU-145, DU-145, GI=growth inhibition, read-out: GI50 DU-145): 8.24 µM
CC50 ([1]; DU-145, DU-145, cell killing (cytotoxic effect), read-out: LC50 DU-145): 17 µM
IC (TGI) ([1]; DU-145, DU-145, total growth inhibition (cytostatic effect), read-out: TGI DU-145): 11.8 µM
GI50 ([2]; SK-OV-3, SKOV-3, GI=growth inhibition, read-out: GI50 SKOV-3): 13.7 µM
LC50 (concentration causing 50% net cell killing) ([2]; SK-OV-3, SKOV-3, cell killing (cytotoxic effect), read-out: LC50 SKOV-3): 18.8 µM
IC (TGI) ([2]; SK-OV-3, SKOV-3, total growth inhibition (cytostatic effect), read-out: TGI SKOV-3): 18.8 µM
GI50 ([3]; PANC-1, PANC-1, GI=growth inhibition, read-out: GI50 PANC-1): 2200 nM
CC50 ([3]; PANC-1, PANC-1, cell killing (cytotoxic effect), read-out: LC50 PANC-1): 18.8 µM
IC (TGI) ([3]; PANC-1, PANC-1, total growth inhibition (cytostatic effect), read-out: TGI PANC-1): 7.94 µM
GI50 ([4]; GI=growth inhibition): 11.8 µM
CC50 [4, 16]: 18.8 µM
IC (TGI) [4, 17]: 57.6 µM
GI50 ([5]; SK-BR-3, SK-BR-3, GI=growth inhibition, read-out: GI50 SK-BR-3): 2370 nM
CC50 ([5]; SK-BR-3, SK-BR-3, cell killing (cytotoxic effect), read-out: LC50 SK-BR-3): 18.8 µM
IC (TGI) ([5]; SK-BR-3, SK-BR-3, total growth inhibition (cytostatic effect), read-out: TGI SK-BR-3): 10.9 µM
GI50 ([6]; K562, K-562, GI=growth inhibition, read-out: GI50 K-562): 815 nM
CC50 ([6]; K562, K-562, cell killing (cytotoxic effect), read-out: LC50 K-562): 2.97 µM
IC (TGI) ([6]; K562, K-562, total growth inhibition (cytostatic effect), read-out: TGI K-562): 2.11 µM
GI50 ([7]; A549, A-549, GI=growth inhibition, read-out: GI50 A-549): ≥ 1880 nM
CC50 ([7]; A549, A-549, cell killing (cytotoxic effect), read-out: LC50 A-549): ≥ 1.88 µM
IC (TGI) ([7]; A549, A-549, total growth inhibition (cytostatic effect), read-out: TGI A-549): 1.88 µM
GI50 ([8]; HMEC-1, H-MEC-1, GI=growth inhibition, read-out: GI50 H-MEC-1): 606 nM
IC (TGI) ([8]; HMEC-1, H-MEC-1, total growth inhibition (cytostatic effect), read-out: TGI H-MEC-1): 1.38 µM
LC50 (concentration giving 50% net cell killing) ([9]; H-MEC-1 cells): 5.72 µM
GI50 ([10]; HT-29, HT-29, GI=growth inhibition, read-out: GI50 HT-29): ≥ 18.8 µM
CC50 ([10]; HT-29, HT-29, cell killing (cytotoxic effect), read-out: LC50 HT-29): 18.8 µM
IC (TGI) ([10]; HT-29, HT-29, total growth inhibition (cytostatic effect), read-out: TGI HT-29): 18.8 µM
GI50 ([11]; IGROV-ET, GI=growth inhibition): 444 nM
CC50 ([11]; IGROV-ET, cell killing (cytotoxic effect)): 18.8 µM
IC (TGI) ([11]; IGROV-ET, total growth inhibition (cytostatic effect)): 1.2 µM
GI50 ([12]; GI=growth inhibition): 493 nM
CC50 [12, 16]: 18.8 µM
IC (TGI) [12, 17]: 1.76 µM
GI50 ([13]; LN-caP, GI=growth inhibition): 277 nM
CC50 ([13]; LN-caP, cell killing (cytotoxic effect)): 7.85 µM
IC (TGI) ([13]; LN-caP, total growth inhibition (cytostatic effect)): 1.44 µM
GI50 ([14]; SK-MEL-28, MEL-28, GI=growth inhibition, read-out: GI50 MEL-28): 2240 nM
CC50 ([14]; SK-MEL-28, MEL-28, cell killing (cytotoxic effect), read-out: LC50 MEL-28): 11.3 µM
IC (TGI) ([14]; SK-MEL-28, MEL-28, total growth inhibition (cytostatic effect), read-out: TGI MEL-28): 5.04 µM
GI50 ([15]; LOVO-DOX, GI=growth inhibition): 801 nM
CC50 ([15]; LOVO-DOX, cell killing (cytotoxic effect)): 18.8 µM
IC (TGI) ([15]; LOVO-DOX, total growth inhibition (cytostatic effect)): 7.13 µM

COc1cc(-c2c3c4cc(OC)c(O)cc4oc(=O)c3n3ccc4c(O)c(OC)c(OC)cc4c23)ccc1O [Compound 2]
GI50 ([1]; DU-145, read-out: GI50 DU-145): 0.064 µM
CC50 ([1]; DU-145, read-out: LC50 DU-145): ≥ 18.9 µM
IC (TGI) ([1]; DU-145, read-out: TGI DU-145): 0.14 µM
GI50 ([2]; SK-OV-3, read-out: GI50 SKOV-3): 0.14 µM
LC50 (concentration causing 50% net cell killing) ([2]; SK-OV-3, read-out: LC50 SKOV-3): ≥ 18.9 µM
IC (TGI) ([2]; SK-OV-3, read-out: TGI SKOV-3): 5.1 µM
GI50 ([3]; PANC-1, read-out: GI50 PANC-1): 988 nM
CC50 ([3]; PANC-1, read-out: LC50 PANC-1): 18.9 µM
IC (TGI) ([3]; PANC-1, read-out: TGI PANC-1): 6.97 µM
GI50 [4]: 0.398 µM
CC50 [4]: 16 µM
IC (TGI) [4]: 3.02 µM
GI50 ([5]; SK-BR-3, read-out: GI50 SK-BR-3): 314 nM
CC50 ([5]; SK-BR-3, read-out: LC50 SK-BR-3): ≥ 18.8 µM
IC (TGI) ([5]; SK-BR-3, read-out: TGI SK-BR-3): 2.36 µM
GI50 ([6]; K562, read-out: GI50 K-562): 117 nM
CC50 ([6]; K562, read-out: LC50 K-562): 18.9 µM
IC (TGI) ([6]; K562, read-out: TGI K-562): 2.25 µM
GI50 ([7]; A549, read-out: GI50 A-549): 674 nM
CC50 ([7]; A549, read-out: LC50 A-549): 18.9 µM
IC (TGI) ([7]; A549, read-out: TGI A-549): 18.9 µM
GI50 ([8]; HMEC-1, read-out: GI50 H-MEC-1): 665 nM
IC (TGI) ([8]; HMEC-1, read-out: TGI H-MEC-1): 18.9 µM
LC50 (concentration giving 50% net cell killing) [9]: ≥ 18.9 µM
GI50 ([10]; HT-29, read-out: GI50 HT-29): 8.31 µM
CC50 ([10]; HT-29, read-out: LC50 HT-29): 18.9 µM
IC (TGI) ([10]; HT-29, read-out: TGI HT-29): 18.9 µM
GI50 [11]: 1980 nM
CC50 [11]: ≥ 18.9 µM
IC (TGI) [11]: 8.12 µM
GI50 [12]: 880 nM
CC50 [12]: ≥ 18.9 µM
IC (TGI) [12]: 5.17 µM
GI50 [13]: 72.7 nM
CC50 [13]: 1.44 µM
IC (TGI) [13]: 0.398 µM
GI50 ([14]; SK-MEL-28, read-out: GI50 MEL-28): 302 nM
CC50 ([14]; SK-MEL-28, read-out: LC50 MEL-28): ≥ 18.9 µM
IC (TGI) ([14]; SK-MEL-28, read-out: TGI MEL-28): 3.66 µM
GI50 [15]: 604 nM
CC50 [15]: 18.9 µM
IC (TGI) [15]: 3.83 µM

COc1cc(-c2c3n(c4c(=O)oc5cc(OC(=O)[C@@H](N)C[S][Fm])c(OC)cc5c24)CCc2c-3cc(OC)c(OC)c2OC(=O)[C@@H](N)C[S][Fm])ccc1OC(=O)[C@@H](N)C[S][Fm] [Compound 23]
LC50 (concentration giving 50% net cell killing) [9]: 2.87 µM
